This note sets out measurements from ChEMBL document CHEMBL5329206 (Bioorg Med Chem, 2023).

Molecules are shown by their SMILES. Activity calls are given as the source filed them. No cut-off for these calls is given here. Where a SMILES comes first, the peptide text is derived from it.

In general, inhibition refers to the relative decrease from the control value, in per cent. What is called IC50 is the concentration that inhibits the measured activity by half. Usually EC50 stands for the concentration needed to bring the measured effect to its halfway point. As a reminder, the CC50 is the concentration at which the toxic effect on the cells reaches its halfway point.

Data set [1] deals with T1, Cathepsin K (Homo sapiens, UniProt P43235).
T1 sequence (P43235 whole entry): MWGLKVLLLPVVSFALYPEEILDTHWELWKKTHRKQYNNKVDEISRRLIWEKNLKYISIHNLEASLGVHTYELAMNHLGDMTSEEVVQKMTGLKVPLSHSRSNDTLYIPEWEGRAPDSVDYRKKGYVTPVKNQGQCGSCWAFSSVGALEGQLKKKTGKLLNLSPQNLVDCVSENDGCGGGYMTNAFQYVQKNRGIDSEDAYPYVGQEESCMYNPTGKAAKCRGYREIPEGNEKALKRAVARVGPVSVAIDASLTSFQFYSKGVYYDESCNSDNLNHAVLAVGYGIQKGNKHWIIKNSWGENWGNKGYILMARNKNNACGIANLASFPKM
Put plainly: Inhibition of human Cathepsin K at 20 uM measured after 30 mins by fluorescence based microplate reader analysis relative to control. It is filed as toxicity. The conditions noted are these: human Cathepsin K enzyme.

Data set [2] addresses Replicase polyprotein 1ab (Severe acute respiratory syndrome coronavirus 2) (UniProt P0DTD1). The data set can be described thus: Inhibition of SARS-CoV-2 MPro using protease substrate at 1 uM preincubated with enzyme for 10 mins followed by substrate addition and measured after 5 mins by FRET based assay. To be noted: time 15.0 min.
Data set [3] concerns the target T1, Cathepsin K. The data set can be described thus: Inhibition of human Cathepsin K measured after 30 mins by fluorescence based microplate reader analysis relative to control. It counts as toxicity.
Data set [4] relates to SARS-CoV-2. Put plainly: Antiviral activity against SARS-CoV-2 infected in African green monkey Vero E6 cells assessed as inhibition of viral infection preincubated for 1 hr followed by incubation in methylcellulose medium for 25 to 26 hrs by TrueBlue based EliSpot analysis. It counts as functional, organism-based. The conditions noted are these: Severe acute respiratory syndrome coronavirus 2, Vero C1008.

Data set [5] in a line: Cytotoxicity against African green monkey Vero E6 cells assessed as cell growth inhibition measured after 48 hrs by CCK8 assay. It counts as toxicity, cell-based, Vero C1008. The conditions noted are these: chlorocebus sabaeus. A general note: Tetrazolium assays rely on reduction of a dye to a coloured formazan, in cell work by metabolically active cells.
The target of data set [6] is Replicase polyprotein 1ab (Severe acute respiratory syndrome coronavirus 2) (UniProt P0DTD1). The data set can be described thus: Inhibition of SARS-CoV-2 MPro using protease substrate at 5 uM preincubated with enzyme for 10 mins followed by substrate addition and measured after 5 mins in presence of 4 mM DTT by FRET based assay. The conditions noted are these: time 15.0 min.

The target in the next data set is Cathepsin B (Homo sapiens, UniProt P07858). The data set can be described thus: Inhibition of human Cathepsin B at 20 uM measured after 30 mins by fluorescence based microplate reader analysis relative to control. It is filed as toxicity. To be noted: human Cathepsin B enzyme.
Data set [7] addresses Replicase polyprotein 1ab (Severe acute respiratory syndrome coronavirus 2) (UniProt P0DTD1). The data set can be described thus: Covalent inhibition of SARS-Cov-2 MPro using protease substrate at 1 uM preincubated with enzyme for 5 to 80 mins followed by substrate addition and measured every 10s for 10 mins by FRET based assay. To be noted: time 15-90 min, TDE = time-dependent effect.

Data set [8] has the same target. The data set can be described thus: Inhibition of SARS-CoV-2 MPro using protease substrate at 5 uM preincubated with enzyme for 10 mins followed by substrate addition and measured after 5 mins by FRET based assay. To be noted: time 15.0 min.
Data set [9] addresses Replicase polyprotein 1ab (Severe acute respiratory syndrome coronavirus 2, UniProt P0DTD1). The data set can be described thus: Inhibition of SARS-CoV-2 MPro using protease substrate preincubated with enzyme for 10 mins followed by substrate addition and measured after 5 mins by FRET based assay.
Data set [10] relates to SARS-CoV-2. The data set can be described thus: Antiviral activity against SARS-CoV-2. It is filed as functional, organism-based. The conditions noted are these: Severe acute respiratory syndrome coronavirus 2.

As to `CC(C)(F)C[C@H](N[C@@H](c1ccc(-c2ccc(S(C)(=O)=O)cc2)cc1)C(F)(F)F)C(=O)NC1(C#N)CC1` [ODANACATIB], the inhibition at 0.5 h, 20 µM at Cathepsin K [1] was found to be 96%.
For `O=C(OCc1ccccc1)N1CCC(n2[se]c3ccccc3c2=O)CC1`, in data set [2], the inhibition worked out at 71.2%.
As for `O=c1c2ccccc2[se]n1Cc1ccc2[nH]ccc2c1`, the inhibition in data set [2] was 32.6%.
As to `O=c1c2ccccc2[se]n1-c1ccccc1` [EBSELEN], at Cathepsin K [3], the IC50 was greater than 20 µM. Further, the inhibition at 0.5 h, 20 µM came out at 38% on Cathepsin K [1] and 62% on Cathepsin B. Also, in the data set on SARS-CoV-2 [4], the EC50 is 3.78 µM. In addition, the CC50 at 48 h in data set [5] was 70.5 µM. In data set [6], the inhibition entry was “inactive”. In addition, the inhibition is 88.3% in [2] and “Tde” in data set [7]. Also, in data set [8], the inhibition result is “Active”.
Turning to `O=c1c2ccccc2[se]n1C1CCN(S(=O)(=O)c2cccnc2)CC1`, the concentration for half-maximal inhibition (IC50) against Cathepsin K [3] is greater than 20 µM; in data set [9] it was 0.268 µM. In addition, the EC50 in the data set on SARS-CoV-2 [4] was greater than 13.3 µM. For the same compound, the CC50 at 48 h in data set [5] came to 13.3 µM. Moreover, the inhibition at 0.5 h, 20 µM against Cathepsin B is 4%. Further, the inhibition in data set [2] came out at 101%.
As to `O=C(NC1CCCC1)C(=O)[C@H](C[C@@H]1CCNC1=O)NC(=O)[C@@H]1[C@H]2CCC[C@H]2CN1C(=O)[C@@H](NC(=O)C(F)(F)F)C1CCCCC1`, in the data set with SARS-CoV-2 [10], it took 0.095 µM to reach a half-maximal effect (EC50).
For the compound `Nc1ccc2[se]n(-c3ccccc3)c(=O)c2c1`, the inhibition in [2] was found to be 21.8%.
For the compound `O=c1c2ccccc2[se]n1C1CCN(S(=O)(=O)c2cccc(Cl)c2)CC1`, in data set [2], the inhibition was 24.7%.
With `O=c1c2ccccc2[se]n1Cc1ccncc1`, the IC50 on Cathepsin K [3] is greater than 20 µM; in data set [9], 0.287 µM. Further, the inhibition at 0.5 h, 20 µM against Cathepsin K [1] was determined as 42%; against Cathepsin B it was 87%. For the same compound, the EC50 with SARS-CoV-2 [4] was greater than 20 µM. Further, in data set [5], the CC50 at 48 h is 55.7 µM. Further, the inhibition entry in data set [6] was “inactive”. Moreover, in data set [2], the inhibition worked out at 97.4%. Also, the inhibition result in data set [8] is “Active”.
Consider `O=c1c2ccccc2[se]n1Cc1cccnc1`, for which the inhibition in data set [2] stood at 80.6%. For the same compound, in data set [9], the IC50 is 0.459 µM.
In the same order, the values of `O=C(Nc1ccc(-n2[se]c3ccccc3c2=O)cc1)C1CC1` are 95.5% and 0.49 µM.
As to `Nc1ccc2c(=O)n(-c3ccccc3)[se]c2c1`, the inhibition result in data set [6] was “inactive”. Moreover, the inhibition in [2] came out at 87%. The half-maximal inhibitory concentration (IC50) in data set [9] was 0.322 µM. Moreover, the inhibition result in data set [8] was “Active”.
For `O=C(Nc1ccc2c(=O)n(-c3ccccc3)[se]c2c1)c1cccs1`, in data set [2], the inhibition came out at 38.9%.
Take `O=c1c2ccccc2[se]n1C1CCN(S(=O)(=O)C2CC2)CC1`: the EC50 with SARS-CoV-2 [4] was greater than 20 µM. Moreover, in data set [5], the CC50 at 48 h was 27.5 µM. Further, the inhibition in data set [2] worked out at 96.2%. The same compound showed an IC50 in data set [9] of 0.356 µM.
On to `O=c1c2ccc([N+](=O)[O-])cc2[se]n1-c1ccccc1`, for which the inhibition in data set [2] was 49.2%.
Still for that read-out and setting: next, `O=c1c2ccccc2[se]n1C1CCN(S(=O)(=O)c2cccs2)CC1`: 67.8%.
For `CC(C)(C)OC(=O)N1CCC(n2[se]c3ccccc3c2=O)CC1`, the inhibition in data set [2] is 85.2%. Half-maximal inhibition in [9] (IC50) was put at 0.417 µM.
As to `CC(=O)N[C@@H](CC(C)C)C(=O)N[C@H](C(=O)N[C@H](C=O)CCCCN)C(C)C` (Ac-Leu-Val-Lys-aldehyde), the inhibition at 0.5 h, 20 µM on Cathepsin B is 99%.
`CS(=O)(=O)Nc1ccc(C(=O)Nc2ccc(-n3[se]c4ccccc4c3=O)cc2)cc1`: in data set [2], the inhibition entry was “inactive”.
Still for that read-out and setting: then `O=c1c2ccccc2[se]n1C1CCNCC1`, with 57.5%; and `O=c1c2ccccc2[se]n1Cc1ccc2ccccc2c1`, with 34.6%.
In the case of `O=c1c2ccccc2[se]n1Cc1ccccc1`, the EC50 in the data set with SARS-CoV-2 [4] is 8.01 µM. Further, in data set [5], the CC50 at 48 h was greater than 100 µM. The inhibition in [2] worked out at 95.5%. Moreover, the IC50 in data set [9] came to 0.364 µM.
In the case of `CC(C)(C)OC(=O)Nc1ccc(-n2[se]c3ccccc3c2=O)cc1`, the inhibition in data set [2] stood at 32.1%.
Turning to `CCOC(=O)c1ccc(-n2[se]c3ccccc3c2=O)cc1`, at Cathepsin K [1], the inhibition at 0.5 h, 20 µM turned out to be 5%. Also, the inhibition in data set [2] was 68.4%.
Consider `O=c1c2cc([N+](=O)[O-])ccc2[se]n1-c1ccccc1`, for which, in data set [2], the inhibition is 18.8%.
Consider `NS(=O)(=O)c1ccc(C(=O)N2CCC(n3[se]c4ccccc4c3=O)CC2)cc1`, for which the inhibition in data set [2] came out at 88.3%. The compound also displayed an IC50 in data set [9] of 0.55 µM.
Take `CN(C)S(=O)(=O)Nc1ccc(-n2[se]c3ccccc3c2=O)cc1`: the EC50 in the data set on SARS-CoV-2 [4] is greater than 9.91 µM. Also, in data set [5], the CC50 at 48 h was 9.91 µM. In addition, in data set [6], the inhibition result is “inactive”. Besides, the inhibition in data set [2] is 91.8%; in data set [7] it was “Tde”. Further, the IC50 in data set [9] was 0.233 µM. Besides, the inhibition entry in data set [8] was “Active”.
For the compound `O=c1c2ccccc2[se]n1-c1ccc(NS(=O)(=O)C2CC2)cc1`, the inhibition entry in [6] was “inactive”. In data set [2], the inhibition was found to be 89.7%. In data set [9], this compound returned a half-maximal inhibitory concentration (IC50) of 0.528 µM. Moreover, the inhibition result in data set [8] is “Active”.
